# From patent publication US20250169499A1, “IMAZAMOX AND GLYPHOSATE FOR CONTROLLING DIGITARIA INSULARIS” (BASF AGROCHEMICAL PRODUCTS B.V., priority 2021, published 2025)
# What was measured:
# Format in all cases: in vivo, Digitaria insularis
# Conditions in all cases: DASH 0.5% v/v
# [1] = tested on: D. insularis (early stage - 2 to 6 leaves); experiment: Field trial, post-emergence application A* (no soybean sowing), visual weed control rated 35 DAA-A*
# Description: (§1) A soil sample from the experimental site was analyzed and provided pH H2O 5.3; 0 cmolc H+Al^+3/dm^3; 4.2 cmolc/dm^3 Ca^+2; 1.6 cmolc/dm^3 Mg^+2; 242 mg/dm^3 K^+; 42.3 mg/dm^3 P; 18% sand; 15% silt and 67% clay.
# (§2) For all herbicide applications, the applications were made using a backpack sprayer that was pressurized by CO2 with six flat fan nozzles XR110.015 at 3 bar, which caused the application volume to reach 150 L ha^−1.
# Glyphosate was used as a commercially available soluble concentrate (SL)-formulation containing glyphosate as its potassium salt (480 g/l of glyphosate in its acid form), which is commercially available under the trade name Roundup Transorb R. […]
# (§3) The value E, which is to be expected if the activity of the individual compounds is just additive, was calculated using the method of S. R. Colby (1967) “Calculating synergistic and antagonistic responses of herbicide combinations”, Weeds 15, p. […] For two component mixtures the value E was calculated by the following formula […]
# (§4) If the value observed in this manner is higher than the value E calculated according to Colby, a synergistic effect is present. […]
# (§5) The results are summarized in the following tables 2, 3 and 4 that show the herbicidal activity of the individual actives and of their combinations in post-emergence application assessed 14, 28 and 35 day after treatment (DAT), respectively.
# D. insularis (flowering) = experiment: Field trial, post-emergence application B (desiccation 0 days before soybean sowing), visual weed control rated 28 DAA-B
# Description: as §1, §2
# (§6) Glyphosate was used as a commercially available soluble concentrate (SL)-formulation containing glyphosate as its potassium salt (480 g/l of glyphosate in its acid form), which is commercially available under the trade name Roundup Transorb R.
# (§7) Imazamox was used as a commercially available water dispersible granule (WG)-formulation containing 700 g/Kg of imazamox, which is commercially available under the trade name Raptor® 70 DG.
# (§8) In table 1, all details related to mode of application of herbicides, and climatic conditions during herbicide application are listed.
# (§9) Crop sowing (in case of A and B; in case of A*, no crops were sown) was carried out under a no-tillage system, by distributing 16 seeds per meter of a M6410® soybean variety in all treatments with Raptor® 70 DG and also 16 seeds m^−1 of a second soybean cultivar (BMX Potência RR) in the remaining treatments. Immediately before sowing, the seeds of both cultivars were treated with a formulation of fipronil, pyraclostrobin and thiophanate methyl (Standak® Top; 200 mL per ha). Crop fertilization was performed with 300 kg ha^−1 of a commercial N-P-K formulation (02-20-18).
# For the post-emergence treatment, the test plants were first grown to a height of 3 to 20 cm, depending on the plant habit, and only then treated. Here, the herbicidal compositions were suspended or emulsified in water as distribution medium and sprayed using finely distributing nozzles.
# Herbicide B was formulated as 10% by weight strength suspension concentrate and introduced to the spray liquor with the amount of solvent system used for applying the active compound. […]
# as §3, §4, §5
# D. insularis (perennial) = experiment: Field trial, post-emergence application A (desiccation 30 days before soybean sowing), visual weed control rated 14 DAA-A
# Description: as §1, §2, §6, §7, §8
# as §9, with “(02-20-18). […]” for “(02-20-18).”
# After the first application (application “A” and “A*”), two evaluations were performed on the effect of treatments on the weeds emerged at that application. For those evaluations, the infestation of the untreated control is used as reference. These assessments for the damage caused by the herbicides A and B, and the binary herbicide combination thereof were carried out at 14 days after application “A” (14 DAA-A) or 35 days after application “A*” (35-DAA-A*) using a scale from 0 to 100%, compared to the untreated control plants. Here, 0 means no damage and 100 means complete destruction of the plants.
# The value E, which is to be expected if the activity of the individual compounds is just additive, was calculated using the method of S. R. Colby (1967) “Calculating synergistic and antagonistic responses of herbicide combinations”, Weeds 15, p. 22 ff. For two component mixtures the value E was calculated by the following formula […]
# as §4
SMILES,Control (%) of D. insularis (early stage - 2 to 6 leaves) ([1]; dose 1080 g ai/ha),Control (%) of D. insularis (flowering) (D. insularis (flowering); dose 1440 g ai/ha),"Control (%) of D. insularis (perennial) (D. insularis (perennial); dose 1080 g ai/ha, scale 0-100% vs untreated)",Control (%) of D. insularis (early stage - 2 to 6 leaves) ([1]; dose 105 g ai/ha),Control (%) of D. insularis (flowering) (D. insularis (flowering); dose 70 g ai/ha),Control (%) of D. insularis (flowering) (D. insularis (flowering); dose 105 g ai/ha),Control (%) of D. insularis (flowering) (D. insularis (flowering); dose 140 g ai/ha),Control (%) of D. insularis (perennial) (D. insularis (perennial); dose 49 g ai/ha),Control (%) of D. insularis (perennial) (D. insularis (perennial); dose 70 g ai/ha),Control (%) of D. insularis (perennial) (D. insularis (perennial); dose 91 g ai/ha)
"O=C(O)CNCP(=O)(O)O [Herbicide A, N-(phosphonomethyl)glycine]",5%,45%,5%,–,–,–,–,–,–,–
"COCc1cnc(C2=NC(C)(C(C)C)C(=O)N2)c(C(=O)O)c1 (stereo not shown) [Herbicide B, 2-(4-isopropyl-4-methyl-5-oxo-2-imidazolin-2-yl)-5-(methoxymethyl)nicotinic acid]",–,–,–,13%,40%,40%,50%,13%,20%,20%
